Several values for one entry are separate records, joined by “and”; a condition that tells them apart may be missing. Equal entries are not always repeated.
Legend:
Format in all cases: physicochemical
[1] = Residual unreacted amustaline by LCMS, Example 6 (treatment in blood collection bags); settings: for Residual amustaline levels in pathogen-inactivated whole blood, 20 hr / Residual amustaline levels in pathogen-inactivated whole blood, 22 hr / Residual amustaline levels in pathogen-inactivated whole blood, 24 hr: 22° C.
Description: More specifically, whole blood units were collected from donors and treated in either Teruflex (Terumo, BB*AGD506A2) blood collection bags (Units 2-7) or Leucoflex (MacoPharma, LQE7230LD) blood collection bags (Units 9-14) containing anticoagulant and integrated into a kit of the present disclosure. Six ABO-matched whole blood units were pooled and split into a control unit and six test units of ~450 mL each. Control units 1 and 8 used kits described in previous Examples. A filter set as previously described was sterile docked to the whole blood transfer tubing of the container that had been sealed and severed, followed by addition of amustaline and GSH to final concentrations of about 0.2 mM and 2.0 mM, respectively. GSH was added first, followed by addition of amustaline within 30 minutes. The mixtures were then incubated at 22° C. for 20 hr, with samples taken for analysis and transfer of the mixtures to the second integrally connected container for test Units 2-7 and 9-14, followed by further incubation and sampling at 2 hr intervals (i.e., 22 hr, 24 hr) for all Units as shown in Table 7.

[2] = Residual unreacted amustaline by LCMS, Example 5 (2-container kits, transfer at 18, 20 or 22 hr); settings: Units 15-21, 2-container kit, transfer time 22 hr, 22° C.
Description: A further study was performed to evaluate additional conditions for the preparation of pathogen-inactivated whole blood using amustaline and GSH in 2-container kits of the present disclosure (e.g., FIG. 3b). Amustaline and GSH were added to the whole blood units at 0.2 mM and 2.0 mM final concentrations, respectively, in the first container. […] Following transfer to the second container the mixtures were further incubated at 22° C., with sampling for analysis at 2 hr intervals as shown in Table 6.
(§1) Samples were analyzed by LCMS to determine the level of residual, unreacted amustaline as previously described.

[3] = Residual unreacted amustaline by LCMS, Example 2 (3-container kit)
Description: Another study was performed to evaluate the effect of container transfer on residual levels of amustaline after pathogen-inactivation of whole blood using a 3-container kit of the present disclosure to allow for one or two transfer steps from the initial (e.g., first) container and a similar filter set as Example 1. Six ABO matched whole blood units in anticoagulant were pooled and split into six ~450 mL units transferred into the first blood bag container of the kit comprising Transfufol 3226 PVC film (Renolit), followed by severing and sealing the pooled donor blood bag, and subsequent connection by tubing welding of a filter set to the same input port (e.g., attached tubing) of the first container, for transferring amustaline and GSH into the whole blood. Amustaline and GSH were added to the whole blood units at final concentrations of 0.2 mM and 2.0 mM, respectively, followed by transfer of the mixture to the second bag (Transfufol 3226 PVC film) and incubated at 22° C. At 22 hr, samples were taken for analysis along with transfer of the mixture to the third bag (Transfufol 3226 PVC film), followed by further incubation at 22° C., with additional samples taken for analysis at 24 hr (i.e., 2 hr post-final transfer) and 26 hr (i.e., 4 hr post-final transfer).
as §1

[4] = Residual unreacted amustaline by LCMS, Example 1 (treatment container; samples moved to separate containers); settings: for Residual amustaline levels in pathogen-inactivated whole blood, 21 hr / Residual amustaline levels in pathogen-inactivated whole blood, 24 hr / Residual amustaline levels in pathogen-inactivated whole blood, 27 hr / Residual amustaline levels in pathogen-inactivated whole blood, 30 hr / Residual amustaline levels in pathogen-inactivated whole blood, 33 hr / Residual amustaline levels in pathogen-inactivated whole blood, 36 hr / Residual amustaline levels in pathogen-inactivated whole blood, 42 hr: no transfer, 0.2 mM amustaline, 2.0 mM GSH
Description: Pathogen inactivated whole blood was prepared with the pathogen inactivation compound, amustaline, and the quencher glutathione (Henschler et al., 2011, Transfus Med Hemother 38:33-42), in a kit of the present disclosure comprising a treatment container and tubing with a 3-way branch for introducing the amustaline/GSH (e.g., a “filter set”) comprising two in line filters for coupling (e.g., connecting) containers (e.g., syringes) of PIC and quencher, and the third branch coupled to (e.g., connected to) a sample diversion pouch (e.g., FIG. 3b). More specifically, four ABO-matched whole blood units containing anticoagulant were pooled and split into 8 half units (225 mL/half unit), added into each of eight treatment bags by connecting the pooled donor blood bag containing the whole blood to the treatment container by way of the tubing and using a tubing welder. Following transfer of the whole blood into the treatment containers, the pooled donor blood bag was removed by sealing and severing the tubing, and the filter set was sterile coupled using a tubing welder to the same input port of the treatment container via the remaining tubing. Amustaline and GSH were added to final concentrations of 0.2 mM and 2.0 mM, respectively. GSH was added first, followed by addition of amustaline, either within 5 minutes of GSH addition or after at least 15 minutes hold time, as indicated in Table 1. The mixtures were incubated at 22° C. (Units 1-4) or 25° C. (Units 5-8), with samples removed at the indicated times for analysis by liquid chromatography-mass spectrometry (LCMS) to determine the level of residual, unreacted amustaline.
Additionally, 50 mL of the mixture was removed from each of Units 2 and 8 at 24 hr and divided into two 25 mL samples in separate containers to compare storage at 4° C. versus room temperature, and for evaluation of residual amustaline levels at 2, 4, 6 and 8 hours of storage under those conditions (Table 2).

[5] = Unit 1, control unit (kit of previous Examples, not transferred), collection bag T
[6] = Unit 8, control unit (kit of previous Examples, not transferred), collection bag M
[7] = Units 2-7, treated in Teruflex (T) blood collection bag, to second container at 20 hr
[8] = Units 9-14, treated in Leucoflex (M) blood collection bag, to second container at 20 hr
[9] = Units 1-2, amustaline added >15 min after GSH, 22° C. in treatment container
[10] = Units 3-4, amustaline added <5 min after GSH, 22° C. in treatment container
[11] = Units 5-6, amustaline added >15 min after GSH, 25° C. in treatment container
[12] = Units 7-8, amustaline added <5 min after GSH, 25° C. in treatment container

Compound: O=C(CCNc1c2ccccc2nc2ccccc12)OCCN(CCCl)CCCl [amustaline]
- Residual amustaline levels in pathogen-inactivated whole blood, 20 hr ([1]; 20 hr (at transfer), Units 2-7, treated in Teruflex (T) blood collection bag, to second container at 20 hr): 2.12e-09 M and 2.32e-09 M and 1.29e-09 M and 1.62e-09 M and 1.53e-09 M and 1.92e-09 M
- Residual amustaline levels in pathogen-inactivated whole blood, 20 hr ([1]; 20 hr (at transfer), Units 9-14, treated in Leucoflex (M) blood collection bag, to second container at 20 hr): 1.36e-09 M and 1.32e-09 M and 1.44e-09 M and 1.34e-09 M and 1.49e-09 M and 1.4e-09 M
- Residual amustaline levels in pathogen-inactivated whole blood, 20 hr ([1]; 20 hr, Unit 1, control unit (kit of previous Examples, not transferred), collection bag T): 2.35e-09 M
- Residual amustaline levels in pathogen-inactivated whole blood, 20 hr ([1]; 20 hr, Unit 8, control unit (kit of previous Examples, not transferred), collection bag M): 2.62e-09 M
- Residual amustaline levels in pathogen-inactivated whole blood, 22 hr [1, 5]: 1.61 nM
- Residual amustaline levels in pathogen-inactivated whole blood, 22 hr [1, 6]: 1.93 nM
- Residual amustaline levels in pathogen-inactivated whole blood, 22 hr [1, 7]: BLOQ (BLOQ = Below Limit of Quantitation (e.g., < 0.75 nM))
- Residual amustaline levels in pathogen-inactivated whole blood, 22 hr [1, 8]: BLOQ (BLOQ = Below Limit of Quantitation (e.g., < 0.75 nM))
- Residual amustaline levels in pathogen-inactivated whole blood, 24 hr [1, 5]: 1.81 nM
- Residual amustaline levels in pathogen-inactivated whole blood, 24 hr [1, 6]: 1.85 nM
- Residual amustaline levels in pathogen-inactivated whole blood, 24 hr [1, 7]: BLOQ (BLOQ = Below Limit of Quantitation (e.g., < 0.75 nM))
- Residual amustaline levels in pathogen-inactivated whole blood, 24 hr [1, 8]: BLOQ (BLOQ = Below Limit of Quantitation (e.g., < 0.75 nM))
- Residual amustaline levels, Units transferred to the second bag at 20 hr ([1]; Units treated in blood collection bags and transferred to the second bag at 20 hr): below the limit of quantitation
- Residual amustaline levels in pathogen-inactivated whole blood, 24 hr ([2]; 24 hr): BLOQ (BLOQ = Below Limit of Quantitation (e.g., <0.75 nM))
- Residual amustaline levels in pathogen-inactivated whole blood, 26 hr ([2]; 26 hr): BLOQ (BLOQ = Below Limit of Quantitation (e.g., <0.75 nM))
- Residual amustaline levels in pathogen-inactivated whole blood, 22 hr ([3]; Units 1-6, 3-container kit (PVC), moved to second bag after amustaline/GSH addition, 22° C., 22 hr, at transfer to third bag): 1.46 nM and 1.39 nM and 1.35 nM and 1.96 nM and 1.84 nM and 1.55 nM
- Residual amustaline levels in pathogen-inactivated whole blood, 26 hr ([3]; Units 1-6, 3-container kit (PVC), third bag from 22 hr, 22° C., 26 hr (4 hr post-final transfer)): BLOQ (BLOQ = Below Limit of Quantitation (e.g., < 0.75 nM))
- residual amustaline levels after transfer to third bag ([3]; third bag after 22 hr, further 22° C. for 2 hr or 4 hr, all samples): below 1 nM
- Residual amustaline levels in pathogen-inactivated whole blood, 21 hr [4, 9]: 3.50 nM and 4.09 nM
- Residual amustaline levels in pathogen-inactivated whole blood, 21 hr [4, 10]: 3.45 nM and 3.85 nM
- Residual amustaline levels in pathogen-inactivated whole blood, 21 hr [4, 11]: 2.91 nM and 3.21 nM
- Residual amustaline levels in pathogen-inactivated whole blood, 21 hr [4, 12]: 3.43 nM and 4.15 nM
- Residual amustaline levels in pathogen-inactivated whole blood, 24 hr [4, 9]: 2.62 nM and 2.66 nM
- Residual amustaline levels in pathogen-inactivated whole blood, 24 hr [4, 10]: 3.04 nM and 3.53 nM
- Residual amustaline levels in pathogen-inactivated whole blood, 24 hr [4, 11]: 2.44 nM and 2.58 nM
- Residual amustaline levels in pathogen-inactivated whole blood, 24 hr [4, 12]: 2.86 nM and 3.39 nM
- Residual amustaline levels in pathogen-inactivated whole blood, 27 hr [4, 9]: 2.27 nM and 3.07 nM
- Residual amustaline levels in pathogen-inactivated whole blood, 27 hr [4, 10]: 3.29 nM and 3.7 nM
- Residual amustaline levels in pathogen-inactivated whole blood, 27 hr [4, 11]: 2.55 nM and 2.71 nM
- Residual amustaline levels in pathogen-inactivated whole blood, 27 hr [4, 12]: 2.74 nM and 3.30 nM
- Residual amustaline levels in pathogen-inactivated whole blood, 30 hr [4, 9]: 2.11 nM and 2.95 nM
- Residual amustaline levels in pathogen-inactivated whole blood, 30 hr [4, 10]: 2.67 nM and 2.84 nM
- Residual amustaline levels in pathogen-inactivated whole blood, 30 hr [4, 11]: 2.04 nM and 2.49 nM
- Residual amustaline levels in pathogen-inactivated whole blood, 30 hr [4, 12]: 2.34 nM and 2.59 nM
- Residual amustaline levels in pathogen-inactivated whole blood, 33 hr [4, 9]: 2.61 nM and 2.29 nM
- Residual amustaline levels in pathogen-inactivated whole blood, 33 hr [4, 10]: 2.16 nM and 2.22 nM
- Residual amustaline levels in pathogen-inactivated whole blood, 33 hr [4, 11]: 1.76 nM and 1.47 nM
- Residual amustaline levels in pathogen-inactivated whole blood, 33 hr [4, 12]: 1.64 nM and 2.83 nM
- Residual amustaline levels in pathogen-inactivated whole blood, 36 hr [4, 9]: 1.62 nM and 1.38 nM
- Residual amustaline levels in pathogen-inactivated whole blood, 36 hr [4, 10]: 1.73 nM and 1.41 nM
- Residual amustaline levels in pathogen-inactivated whole blood, 36 hr [4, 11]: 1.89 nM and 1.87 nM
- Residual amustaline levels in pathogen-inactivated whole blood, 36 hr [4, 12]: 2.28 nM and 1.97 nM
- Residual amustaline levels in pathogen-inactivated whole blood, 42 hr [4, 9]: 1.30 nM and 1.35 nM
- Residual amustaline levels in pathogen-inactivated whole blood, 42 hr [4, 10]: 1.66 nM and 1.57 nM
- Residual amustaline levels in pathogen-inactivated whole blood, 42 hr [4, 11]: 1.62 nM and 1.22 nM
- Residual amustaline levels in pathogen-inactivated whole blood, 2 hr ([4]; Units 2 and 8, 25 mL sample removed at 24 hr into separate container, stored at RT, 2 hr of storage): BLOQ (BLOQ = Below Limit of Quantitation (e.g., < 0.75 nM))
- Residual amustaline levels in pathogen-inactivated whole blood, 4 hr ([4]; Units 2 and 8, 25 mL sample removed at 24 hr into separate container, stored at RT, 4 hr of storage): BLOQ (BLOQ = Below Limit of Quantitation (e.g., < 0.75 nM))
- Residual amustaline levels in pathogen-inactivated whole blood, 6 hr ([4]; Units 2 and 8, 25 mL sample removed at 24 hr into separate container, stored at RT, 6 hr of storage): BLOQ (BLOQ = Below Limit of Quantitation (e.g., < 0.75 nM))
- residual amustaline after transfer to a different container and storage at room temperature ([4]; treatment mixtures from Units 2 and 8, transfer to a different container, further storage at room temperature): below the limit of quantitation

From patent publication US12728186B2, “Methods and kits for preparing pathogen-inactivated whole blood” (priority 2018, dated 2026)
